melting point: 100.5 to 102.1 °C
SMILES: COc1ccc(-c2cnc(SCC(=O)NCC[C@@H]3C[C@@H](Cc4ccc(Cl)c(Cl)c4)CN3)nc2)cc1OC.Cl
